The target in this test is hTREM2 (Homo sapiens, UniProt Q9NZC2). Put plainly: Phospho-Syk AlphaScreen/AlphaLISA assay in TREM2 and DAP12 overexpressing HEK293 cells (Example A1). It counts as cell-based. Further details: expressed in transfected cells. The following applies: HEK293 cells; for EC50: read-out: hTREM2 EC50. In outline:
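Agonism read as Syk phosphorylation: compounds in 1% DMSO applied 45 min at room temperature to TREM2/DAP12-HEK293 cells after 20 h culture. Lysis buffer with phosphatase inhibitors and anti-phospho-Syk plus biotinylated anti-Syk antibodies, then AlphaLISA beads (680 nm excitation); percent of control computed from antibody/isotype wells, curves fitted sigmoidally.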
Background: Alpha assays give light when donor and acceptor beads are brought close together.

Sequence of hTREM2 (Q9NZC2 19-230): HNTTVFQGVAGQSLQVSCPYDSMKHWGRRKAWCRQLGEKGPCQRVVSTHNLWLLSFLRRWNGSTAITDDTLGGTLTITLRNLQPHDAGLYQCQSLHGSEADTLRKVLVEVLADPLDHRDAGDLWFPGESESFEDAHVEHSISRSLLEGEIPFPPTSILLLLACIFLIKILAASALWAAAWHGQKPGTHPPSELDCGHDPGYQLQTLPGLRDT
Sequence of hTREM2 (O43914 22-113 partner): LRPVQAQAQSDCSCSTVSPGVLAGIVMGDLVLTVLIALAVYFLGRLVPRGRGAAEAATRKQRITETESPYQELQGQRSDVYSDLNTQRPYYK

What is called EC50 is the concentration that produces a half-maximal response. On to `COc1ncnc2c1CN(c1cc3nc(C)n(C)c(=O)c3c(-c3ccc(Cl)cc3F)n1)CC2` [Example 116, 5′-(4-chloro-2-fluorophenyl)-4-methoxy-2′,3′-dimethyl-7,8-dihydro-5H-[6,7′-bipyrido[4,3-d]pyrimidin]-4′(3′H)-one], for which the Emax result is “++ (Emax>100 and ≤200)”; the EC50 lay in the range of 50 to 500 nM.
In the case of `Cc1nc2cc(N3CCOC(CC(F)(F)F)C3)nc(-c3ccc(Cl)cc3F)c2c(=O)n1C` (stereo not drawn) [Example 53, 5-(4-chloro-2-fluorophenyl)-2,3-dimethyl-7-(2-(2,2,2-trifluoroethyl)-4-morpholinyl)pyrido[4,3-d]pyrimidin-4(3H)-one], the Emax result is given as “++++ (Emax>300)” and the EC50 lay within 500 to 3000 nM.
The corresponding values for `Cc1nc2cc(N3CCO[C@H]([C@@H]4CCO4)C3)nc(-c3ccc(Cl)cc3F)c2c(=O)n1C` [Example 269, 5-(4-chloro-2-fluorophenyl)-2,3-dimethyl-7-((S)-2-((S)-oxetan-2-yl)morpholino)pyrido[4,3-d]pyrimidin-4(3H)-one] are “++++ (Emax>300)” and 500 to 3000 nM.
On to `Cc1nc2cc(N3CCCC(N4CCC4)C3)nc(-c3ccc(Cl)cc3F)c2c(=O)n1C` (stereo not drawn) [Example 110, 7-(3-(1-azetidinyl)-1-piperidinyl)-5-(4-chloro-2-fluorophenyl)-2,3-dimethylpyrido[4,3-d]pyrimidin-4(3H)-one], for which the Emax entry is listed as “++++ (Emax>300)” and the EC50 was in the range of 500 to 3000 nM.
Take `CCCn1c(C)nc2cc(N3CCO[C@H](C(F)(F)F)C3)nc(-c3ccc(Cl)cc3F)c2c1=O` [Example 180, (S)-5-(4-chloro-2-fluorophenyl)-2-methyl-3-propyl-7-(2-(trifluoromethyl)morpholino)pyrido[4,3-d]pyrimidin-4(3H)-one]: the Emax entry is “++++ (Emax>300)” and the concentration for a half-maximal effect (EC50) is 500 to 3000 nM.
As for `Cc1nc2cc(N3CCO[C@H](c4nccs4)C3)nc(-c3ccc(Cl)cc3F)c2c(=O)n1C` [Example 198, (S)-5-(4-chloro-2-fluorophenyl)-2,3-dimethyl-7-(2-(thiazol-2-yl)morpholino)pyrido[4,3-d]pyrimidin-4(3H)-one], the Emax result was “++++ (Emax>300)” and the EC50 fell in the range of 500 to 3000 nM.
Taken in the same sequence, the figures for `Cc1nc2cc(N3CCC[C@H](N4CCCC4=O)C3)nc(-c3ccc(Cl)cc3F)c2c(=O)n1C` [Example 232, (S)-5-(4-chloro-2-fluorophenyl)-2,3-dimethyl-7-(3-(2-oxopyrrolidin-1-yl)piperidin-1-yl)pyrido[4,3-d]pyrimidin-4(3H)-one] were “++++ (Emax>300)” and 500 to 3000 nM.
With `Cc1nc2cc(N3CC[C@H](c4cnn(C)c4)C3)nc(-c3ccc(Cl)cc3F)c2c(=O)n1C` [Example 202, (R)-5-(4-chloro-2-fluorophenyl)-2,3-dimethyl-7-(3-(1-methyl-1H-pyrazol-4-yl)pyrrolidin-1-yl)pyrido[4,3-d]pyrimidin-4(3H)-one], the Emax entry is “+++ (Emax>200 and ≤300)”; the EC50 was 3000 to 100000 nM.
Take `Cc1noc([C@H]2CCCN(c3cc4nc(C)n(C)c(=O)c4c(-c4ccc(Cl)cc4F)n3)C2)n1` [Example 230, (S)-5-(4-chloro-2-fluorophenyl)-2,3-dimethyl-7-(3-(3-methyl-1,2,4-oxadiazol-5-yl)piperidin-1-yl)pyrido[4,3-d]pyrimidin-4(3H)-one]: the Emax result is reported as “++++ (Emax>300)” and the EC50 lay within 500 to 3000 nM.
As for `Cc1ccc([C@@H]2C[C@@H](c3cc4nc(C)n(C)c(=O)c4c(-c4ccc(Cl)cc4F)n3)CCO2)cn1` [Example 272, 5-(4-chloro-2-fluorophenyl)-2,3-dimethyl-7-((2S,4S)-2-(6-methylpyridin-3-yl)tetrahydro-2H-pyran-4-yl)pyrido[4,3-d]pyrimidin-4(3H)-one], the Emax result is “++++ (Emax>300)” and the EC50 is 50 to 500 nM.
In the case of `Cc1nc2cc(N3C[C@H](c4cnn(C)c4)OC[C@H]3C)nc(-c3ccc(Cl)cc3F)c2c(=O)n1C` (single isomer, unassigned) [Example 25], the Emax result was “+++ (Emax>200 and ≤300)”; the EC50 is 500 to 3000 nM.
With `Cc1nc2cc(N3CCO[C@H](c4cnn(C)c4)C3)nc(-c3ccc(Cl)cc3F)c2c(=O)n1C` [Example 189, (R)-5-(4-chloro-2-fluorophenyl)-2,3-dimethyl-7-(2-(1-methyl-1H-pyrazol-4-yl)morpholino)pyrido[4,3-d]pyrimidin-4(3H)-one], the Emax entry is “++++ (Emax>300)” and the EC50 was in the range of 50 to 500 nM.
For the compound `Cc1nc2cc(N3CCO[C@@H](c4ccc(OCC(F)(F)F)nc4)C3)nc(-c3ccc(Cl)cc3F)c2c(=O)n1C` [Example 236, (S)-5-(4-chloro-2-fluorophenyl)-2,3-dimethyl-7-(2-(6-(2,2,2-trifluoroethoxy)pyridin-3-yl)morpholino)pyrido[4,3-d]pyrimidin-4(3H)-one], the Emax entry is “++ (Emax>100 and ≤200)”; the EC50 is 3000 to 100000 nM.
Regarding `CCn1c(C)nc2cc(N3CCO[C@@H](c4ccnc(C)c4)C3)nc(-c3ccc(F)cc3F)c2c1=O` [Example 150, 5-(2,4-difluorophenyl)-3-ethyl-2-methyl-7-((2S)-2-(2-methyl-4-pyridinyl)-4-morpholinyl)pyrido[4,3-d]pyrimidin-4(3H)-one], the Emax result was “+++ (Emax>200 and ≤300)”; the EC50 is under 50 nM.
With `Cc1nnc([C@H]2CN(c3cc4nc(C)n(C)c(=O)c4c(-c4ccc(Cl)cc4F)n3)CCO2)o1` (single isomer, unassigned) [Example 59], the Emax result is “+++ (Emax>200 and ≤300)”; the EC50 was 50 to 500 nM.
As to `Cc1nc2cc(N3CCO[C@@H](c4cnn(C(CF)CF)c4)C3)nc(-c3ccc(Cl)cc3F)c2c(=O)n1C` [Example 133, 5-(4-chloro-2-fluorophenyl)-7-((2S)-2-(1-(1,3-difluoro-2-propanyl)-1H-pyrazol-4-yl)-4-morpholinyl)-2,3-dimethylpyrido[4,3-d]pyrimidin-4(3H)-one], the Emax entry was “+++ (Emax>200 and ≤300)”; the EC50 was under 50 nM.
Consider `Cc1nc2cc(N3CCO[C@@H](c4noc(C5CC5)n4)C3)nc(-c3ccc(Cl)cc3F)c2c(=O)n1C` (single isomer, unassigned) [Example 84], for which the Emax result is “++++ (Emax>300)” and the EC50 was 500 to 3000 nM.
Take `Cc1nc2cc(N3CCC[C@@H](c4cnn(C)c4)C3)nc(-c3ccc(Cl)cc3F)c2c(=O)n1C` (single isomer, unassigned) [Example 99]: the Emax result was “++++ (Emax>300)” and the EC50 lay within 50 to 500 nM.
The corresponding values for `Cc1nc2cc(N3CCC(F)(F)[C@H](N4CCC4)C3)nc(-c3ccc(Cl)cc3F)c2c(=O)n1C` [Example 249, (R)-7-(3-(azetidin-1-yl)-4,4-difluoropiperidin-1-yl)-5-(4-chloro-2-fluorophenyl)-2,3-dimethylpyrido[4,3-d]pyrimidin-4(3H)-one] are “++++ (Emax>300)” and 500 to 3000 nM.
As to `Cc1nc2cc(N3CCO[C@@H](c4cnn(C)c4)C3)nc(-c3ccc(Cl)c(F)c3)c2c(=O)n1C` [Example 7, 5-(4-chloro-3-fluorophenyl)-2,3-dimethyl-7-((2S)-2-(1-methyl-1H-pyrazol-4-yl)-4-morpholinyl)pyrido[4,3-d]pyrimidin-4(3H)-one], the Emax entry is recorded as “++++ (Emax>300)” and the EC50 lay in the range of 50 to 500 nM.
In the case of `Cc1nc2cc(N3CCO[C@H](c4cnn(C)c4)C3)cc(-c3ccc(Cl)cc3F)c2c(=O)n1C` [Example 4, 5-(4-chloro-2-fluorophenyl)-2,3-dimethyl-7-((2R)-2-(1-methyl-1H-pyrazol-4-yl)-4-morpholinyl)-4(3H)-quinazolinone], the Emax result was “+++ (Emax>200 and ≤300)”; the EC50 fell in the range of 500 to 3000 nM.
Consider `Cc1nc2cc(N3CCO[C@@H](c4cnn(CC(F)(F)F)c4)C3)nc(-c3ccc(Cl)cc3F)c2c(=O)n1C` [Example 126, 5-(4-chloro-2-fluorophenyl)-2,3-dimethyl-7-((2S)-2-(1-(2,2,2-trifluoroethyl)-1H-pyrazol-4-yl)-4-morpholinyl)pyrido[4,3-d]pyrimidin-4(3H)-one], for which the Emax result was “+++ (Emax>200 and ≤300)”; the EC50 is under 50 nM.
As to `Cc1nc2cc([C@@H]3CCO[C@H](c4cnn(C)c4)C3)nc(-c3ccc(Cl)cc3F)c2c(=O)n1C` [Example 275, 5-(4-chloro-2-fluorophenyl)-2,3-dimethyl-7-((2S,4R)-2-(1-methyl-1H-pyrazol-4-yl)tetrahydro-2H-pyran-4-yl)pyrido[4,3-d]pyrimidin-4(3H)-one], the Emax entry was “++ (Emax>100 and ≤200)”; the EC50 was under 50 nM.
For the compound `Cc1nn(C)cc1[C@H]1CN(c2cc3nc(C)n(C)c(=O)c3c(-c3ccc(Cl)cc3F)n2)CCO1` [Example 263, (S)-5-(4-chloro-2-fluorophenyl)-7-(2-(1,3-dimethyl-1H-pyrazol-4-yl)morpholino)-2,3-dimethylpyrido[4,3-d]pyrimidin-4(3H)-one], the Emax entry is “+++ (Emax>200 and ≤300)”; the EC50 lay within 50 to 500 nM.
Take `Cc1nc2cc(N3CCCC(C)(c4ccccc4)C3)nc(-c3ccc(Cl)cc3F)c2c(=O)n1C` (stereo not drawn) [Example 103, 5-(4-chloro-2-fluorophenyl)-2,3-dimethyl-7-(3-methyl-3-phenyl-1-piperidinyl)pyrido[4,3-d]pyrimidin-4(3H)-one]: the Emax result is “+ (Emax>45 and ≤100)”; the EC50 lay in the range of 3000 to 100000 nM.
As to `Cc1nc2cc(N3C[C@@H](c4cnn(C)c4)OC[C@H]3C)nc(-c3ccc(Cl)cc3F)c2c(=O)n1C` (single isomer, unassigned) [Example 26], the Emax result was “+++ (Emax>200 and ≤300)”; the half-maximal effective concentration (EC50) is 500 to 3000 nM.
In the case of `Cc1nc2cc(N3C[C@@H](C)O[C@H](c4cnn(C)c4)C3)nc(-c3ccc(Cl)cc3F)c2c(=O)n1C` (single isomer, unassigned) [Example 27], the Emax entry is “++++ (Emax>300)” and the EC50 lay within 50 to 500 nM.

(Values after patent US20250388574A1, “HETEROCYCLIC COMPOUNDS AS TRIGGERING RECEPTOR EXPRESSED ON MYELOID CELLS 2 AGONISTS AND METHODS OF USE” (AMGEN INC., priority 2020, published 2025).)
